Test results taken from ChEMBL document CHEMBL1156319, “Synthesis, crystal and antibacterial studies of diversely functionalized tetrahydropyridin-4-ol” (2010).
In brackets after ≈: the same amount, converted by molar mass.

Key:
Assay type in all cases: functional
[1] = tested on: Staphylococcus epidermidis; test: Antibacterial activity against Staphylococcus epidermidis LCB0003 by two fold serial dilution method
[2] = tested on: Enterococcus faecalis; test: Antibacterial activity against vancomycin and Linezolid resistant Enterococcus faecalis LCB0007 by two fold serial dilution method
[3] = tested on: Enterococcus faecalis; test: Antibacterial activity against vancomycin-resistant Enterococcus faecalis LCB0006 by two fold serial dilution method
[4] = tested on: Escherichia coli; test: Antibacterial activity against Escherichia coli LCB0010 by two fold serial dilution method
[5] = tested on: Escherichia coli; test: Antibacterial activity against Escherichia coli LCB0012 by two fold serial dilution method
[6] = tested on: Klebsiella pneumoniae; test: Antibacterial activity against Klebsiella pneumoniae LCB0014 by two fold serial dilution method
[7] = tested on: Enterococcus faecium; test: Antibacterial activity against Enterococcus faecium LCB0009 by two fold serial dilution method
[8] = tested on: Staphylococcus aureus; test: Antibacterial activity against methicillin-resistant Staphylococcus aureus LCB0002 by two fold serial dilution method
[9] = tested on: Staphylococcus epidermidis; test: Antibacterial activity against methicillin-resistant Staphylococcus epidermidis LCB0004 by two fold serial dilution method
[10] = tested on: Escherichia coli; test: Antibacterial activity against Escherichia coli LCB0011 by two fold serial dilution method
[11] = tested on: Enterococcus faecium; test: Antibacterial activity against vancomycin-resistant Enterococcus faecium LCB0008 by two fold serial dilution method
[12] = tested on: Pseudomonas aeruginosa; test: Antibacterial activity against Pseudomonas aeruginosa LCB0013 by two fold serial dilution method
[13] = tested on: Staphylococcus aureus; test: Antibacterial activity against Staphylococcus aureus LCB0001 by two fold serial dilution method
[14] = tested on: Haemophilus influenzae; test: Antibacterial activity against Haemophilus influenzae LCB0015 by two fold serial dilution method
[15] = tested on: Moraxella catarrhalis; test: Antibacterial activity against Moraxella catarrhalis LCB0016 by two fold serial dilution method
[16] = tested on: Enterococcus faecalis; test: Antibacterial activity against Enterococcus faecalis LCB0005 by two fold serial dilution method

SMILES	MIC90 [1]	MIC90 [2]	MIC90 [3]	MIC90 [4]	MIC90 [5]	MIC90 [6]	MIC90 [7]	MIC90 [8]	MIC90 [9]	MIC90 [10]	MIC90 [11]	MIC90 [12]	MIC90 [13]	MIC90 [14]	MIC90 [15]	MIC90 [16]
CC(=O)NC[C@H]1CN(c2ccc(N3CCOCC3)c(F)c2)C(=O)O1 [LINEZOLID]	4 µg/mL (≈ 11.9 µM)	64 µg/mL (≈ 190 µM)	4 µg/mL (≈ 11.9 µM)	> 128 µg/mL	128 µg/mL (≈ 379 µM)	> 128 µg/mL	4 µg/mL (≈ 11.9 µM)	2 µg/mL (≈ 5.93 µM)	8 µg/mL (≈ 23.7 µM)	16 µg/mL (≈ 47.4 µM)	2 µg/mL (≈ 5.93 µM)	> 128 µg/mL	2 µg/mL (≈ 5.93 µM)	16 µg/mL (≈ 47.4 µM)	4 µg/mL (≈ 11.9 µM)	4 µg/mL (≈ 11.9 µM)
N[C@@H]1[C@H]2CN(c3nc4c(cc3F)c(=O)c(C(=O)O)cn4-c3ccc(F)cc3F)C[C@@H]12 [TROVAFLOXACIN]	< 0.0625 µg/mL	16 µg/mL (≈ 38.4 µM)	16 µg/mL (≈ 38.4 µM)	< 0.0625 µg/mL	< 0.0625 µg/mL	0.125 µg/mL (≈ 0.3 µM)	32 µg/mL (≈ 76.9 µM)	2 µg/mL (≈ 4.8 µM)	< 0.0625 µg/mL	< 0.0625 µg/mL	128 µg/mL (≈ 307 µM)	0.5 µg/mL (≈ 1.2 µM)	< 0.0625 µg/mL	< 0.0625 µg/mL	< 0.0625 µg/mL	< 0.0625 µg/mL
